Values quoted from earlier work, collected in patent publication US10406114B2, “Antibiotic-loaded transdermal patch” (priority 2017, dated 2019).

Test system: Staphylococcus aureus

CC1=C(C(=O)O)N2C(=O)[C@@H](NC(=O)[C@H](N)c3ccccc3)[C@H]2SC1 [cephalexin]
MIC: about 8 μg/ml
